Experimental data published in patent US6841169B2, “Stabilizer for pharmacons” (Rijksuniversiteit Groningen, priority 2001, dated 2005).

Legend:
[1] = system: alkaline phosphatase; conditions: for Activity alkaline phosphatase after freeze-drying and 6 days at 0% RH and 60° C.: alkaline phosphatase to stabilizer 1 to 9, average of 4 independent experiments; for Activity alkaline phosphatase directly after freeze drying: alkaline phosphatase to stabilizer 1 to 9 by weight, average of 2 independent experiments
[2] = Storage of sugar glasses at 20° C. at raised relative air humidity (deliquescence); format: physicochemical; conditions: 45% relative air humidity
Source text: In practice, a sugar glass will never be completely anhydrous. This is for instance the consequence of uptake of water from the air. […] The extent of water uptake depends on the hygroscopicity of the material and of the relative degree of air humidity.

[3] = Freeze-drying at a sample temperature of −16° C. (cake formation); format: physicochemical; conditions: sample temperature −16° C.
Method: This last was tested in experiments with trehalose and inulin. Freeze-drying was done at a sample temperature of −16° C. […] Accordingly, inulin can be freeze-dried under less stringent conditions.

[4] = from scientific publications; cited from earlier work

SMILES	Activity alkaline phosphatase after freeze-drying and 6 days at 0% RH and 60° C. [1] [%]	Activity alkaline phosphatase directly after freeze drying [1] [%]	Activity of the protein after 4 weeks at 45% RH (in words) ([1]; freeze-dried samples, 4 weeks, 45% RH, 20° C.)	Activity of alkaline phosphatase after 4 weeks at 45% RH ([1]; freeze-dried samples, 4 weeks, 45% RH, 20° C., FIG. II) [%]	Activity of the protein after 4 weeks at 60% RH (in words) ([1]; freeze-dried samples, 4 weeks, 60% RH, 20° C.)	Activity of alkaline phosphatase after four weeks at 60% RH ([1]; freeze-dried samples, 4 weeks, 60% RH, 20° C., FIG. III) [%]	Activity of the protein after 6 days of storage at 0% RH and 60° C. (in words) ([1]; freeze-dried samples)	Behaviour of glass exposed to relative air humidity of 45% [2]	Cake obtained on freeze-drying [3]	Tg (glass transition temperature) [4] [°C]
O=C[C@H](O)[C@@H](O)[C@H](O)[C@H](O)CO [Glucose]	0.8 ± 4.5	110.3 ± 10.6	substantial decrease of the activity	57.9±3.1	substantial decrease of the activity	46.3±16.1	gone completely	–	–	–
OC[C@H]1O[C@H](O[C@H]2O[C@H](CO)[C@@H](O)[C@H](O)[C@H]2O)[C@H](O)[C@@H](O)[C@@H]1O [Trehalose]	−1.4 ± 2.8	95.9 ± 11.5	–	–	–	–	gone completely	first deliquesced (that is, the Tg falls below 20° C.) and then crystallized	collapsed cake	~120
